# The supplement of paper PMC12076712
# Assays:
# Test in all cases: pIC50, kinobeads binding competition
# PKMYT1 = target: T1, PKMYT1 (UniProt Q99640)
# T1 sequence (whole entry): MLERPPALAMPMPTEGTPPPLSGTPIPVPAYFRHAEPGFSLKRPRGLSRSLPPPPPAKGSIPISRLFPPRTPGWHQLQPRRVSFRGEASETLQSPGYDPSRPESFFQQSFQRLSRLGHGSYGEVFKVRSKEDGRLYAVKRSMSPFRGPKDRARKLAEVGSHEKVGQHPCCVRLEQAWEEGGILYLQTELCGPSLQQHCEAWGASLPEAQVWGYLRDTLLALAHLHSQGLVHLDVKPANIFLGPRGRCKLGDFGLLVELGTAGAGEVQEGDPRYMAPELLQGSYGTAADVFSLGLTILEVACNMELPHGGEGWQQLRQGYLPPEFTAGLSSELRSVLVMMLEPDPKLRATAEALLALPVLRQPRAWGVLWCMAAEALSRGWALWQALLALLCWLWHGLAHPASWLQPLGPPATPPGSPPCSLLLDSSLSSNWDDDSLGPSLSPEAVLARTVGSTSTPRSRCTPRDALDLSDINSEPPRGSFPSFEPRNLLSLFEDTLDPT
# Method in brief: (§1)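 Jurkat cells were exposed alive to nine compound concentrations (top 30 μM, 1:4 steps) or vehicle for 60 min at 37 °C and then lysed. In a second format, nine concentrations (top 30 μM, 1:5 steps) were incubated for 60 min at 4 °C with Jurkat lysate or with a 1:1:1:1 lysate mix of HEK293, K-562, HepG2 and placenta. Proteins captured on Kinobeads were digested and quantified by TMT10 LC-MS/MS. pIC50 values were derived from logistic dose-response fits (R drc package) of fold changes relative to vehicle, in biological duplicates.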
# PIM3 = PIM3 (UniProt Q86V86)
# Method in brief: as §1
# UniProt Q9NYL2 = target: UniProt Q9NYL2
# Method in brief: as §1
# UniProt P36507 = target: UniProt P36507
# Method in brief: as §1
# DYRK1B = DYRK1B (UniProt Q9Y463)
# Method in brief: as §1
# UniProt P27361 = target: UniProt P27361
# Method in brief: as §1
# ACVR1 = target: T2, ACVR1 (UniProt Q04771)
# T2 sequence (whole entry): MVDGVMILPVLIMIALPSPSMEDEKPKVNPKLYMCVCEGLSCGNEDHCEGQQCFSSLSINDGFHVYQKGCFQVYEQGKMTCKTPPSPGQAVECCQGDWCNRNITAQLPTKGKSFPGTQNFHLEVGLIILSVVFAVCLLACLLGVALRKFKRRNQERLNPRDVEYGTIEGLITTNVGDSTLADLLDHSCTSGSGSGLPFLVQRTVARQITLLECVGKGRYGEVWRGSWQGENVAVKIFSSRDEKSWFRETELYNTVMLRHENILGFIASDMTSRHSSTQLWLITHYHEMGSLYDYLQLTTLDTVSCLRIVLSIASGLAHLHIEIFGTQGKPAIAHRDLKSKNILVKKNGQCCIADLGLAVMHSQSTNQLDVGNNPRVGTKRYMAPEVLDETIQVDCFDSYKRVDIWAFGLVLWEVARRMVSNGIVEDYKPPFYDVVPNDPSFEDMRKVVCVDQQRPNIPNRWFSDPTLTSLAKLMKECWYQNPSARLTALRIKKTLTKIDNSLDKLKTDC
# Method in brief: as §1
# EPHA2 = EPHA2 (UniProt P29317); settings: cell material: Lysate mix
# Method in brief: as §1
# UniProt P21127 = target: UniProt P21127
# Method in brief: as §1
# UniProt P51812 = target: UniProt P51812
# Method in brief: as §1
# CIT = CIT (UniProt O14578)
# Method in brief: as §1
# PRKAA2 = PRKAA2 (UniProt P54646); settings: cell material: Lysate mix
# Method in brief: as §1
# EGFR = EGFR (UniProt P00533); settings: cell material: Lysate mix
# Method in brief: as §1
# Hck = Hck (UniProt P08631); settings: cell material: Lysate mix
# Method in brief: as §1
# CAMK2B = CAMK2B (UniProt Q13554); settings: cell material: Lysate mix
# Method in brief: as §1
# TEC = target: T3, TEC (UniProt P42680)
# T3 sequence (whole entry): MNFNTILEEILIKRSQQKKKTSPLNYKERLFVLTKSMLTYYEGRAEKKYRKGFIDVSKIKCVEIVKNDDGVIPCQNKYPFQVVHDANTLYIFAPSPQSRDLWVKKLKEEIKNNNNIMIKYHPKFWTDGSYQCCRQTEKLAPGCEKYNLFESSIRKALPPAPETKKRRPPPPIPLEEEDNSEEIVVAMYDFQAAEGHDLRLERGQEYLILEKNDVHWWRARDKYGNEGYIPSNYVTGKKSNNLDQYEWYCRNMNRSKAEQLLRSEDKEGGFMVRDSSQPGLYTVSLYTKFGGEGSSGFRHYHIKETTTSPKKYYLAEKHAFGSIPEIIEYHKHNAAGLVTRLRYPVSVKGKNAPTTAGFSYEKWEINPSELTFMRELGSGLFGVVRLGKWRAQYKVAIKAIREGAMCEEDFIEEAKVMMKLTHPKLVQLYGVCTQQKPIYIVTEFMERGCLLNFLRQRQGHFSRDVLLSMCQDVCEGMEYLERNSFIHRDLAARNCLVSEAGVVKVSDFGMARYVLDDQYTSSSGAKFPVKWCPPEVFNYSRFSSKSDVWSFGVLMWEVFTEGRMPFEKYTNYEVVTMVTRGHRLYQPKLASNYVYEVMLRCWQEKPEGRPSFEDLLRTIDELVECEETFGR
# Method in brief: as §1
# UniProt O96017 = target: UniProt O96017
# Method in brief: as §1
# BMPR1B = BMPR1B (UniProt O00238); settings: cell material: Lysate mix
# Method in brief: as §1
# TYK2 = TYK2 (UniProt P29597)
# Method in brief: as §1
# Sequence of UniProt P36507 (P36507 whole entry): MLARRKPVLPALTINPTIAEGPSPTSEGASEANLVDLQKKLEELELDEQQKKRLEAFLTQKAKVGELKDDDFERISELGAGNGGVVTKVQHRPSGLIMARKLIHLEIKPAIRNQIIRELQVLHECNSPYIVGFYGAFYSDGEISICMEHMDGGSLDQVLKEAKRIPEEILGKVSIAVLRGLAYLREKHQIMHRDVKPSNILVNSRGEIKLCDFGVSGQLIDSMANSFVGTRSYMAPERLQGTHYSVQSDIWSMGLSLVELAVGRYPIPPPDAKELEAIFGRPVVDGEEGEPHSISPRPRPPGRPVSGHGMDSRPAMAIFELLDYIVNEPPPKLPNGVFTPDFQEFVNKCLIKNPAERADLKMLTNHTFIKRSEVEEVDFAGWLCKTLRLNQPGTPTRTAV
# Sequence of UniProt P51812 (P51812 whole entry): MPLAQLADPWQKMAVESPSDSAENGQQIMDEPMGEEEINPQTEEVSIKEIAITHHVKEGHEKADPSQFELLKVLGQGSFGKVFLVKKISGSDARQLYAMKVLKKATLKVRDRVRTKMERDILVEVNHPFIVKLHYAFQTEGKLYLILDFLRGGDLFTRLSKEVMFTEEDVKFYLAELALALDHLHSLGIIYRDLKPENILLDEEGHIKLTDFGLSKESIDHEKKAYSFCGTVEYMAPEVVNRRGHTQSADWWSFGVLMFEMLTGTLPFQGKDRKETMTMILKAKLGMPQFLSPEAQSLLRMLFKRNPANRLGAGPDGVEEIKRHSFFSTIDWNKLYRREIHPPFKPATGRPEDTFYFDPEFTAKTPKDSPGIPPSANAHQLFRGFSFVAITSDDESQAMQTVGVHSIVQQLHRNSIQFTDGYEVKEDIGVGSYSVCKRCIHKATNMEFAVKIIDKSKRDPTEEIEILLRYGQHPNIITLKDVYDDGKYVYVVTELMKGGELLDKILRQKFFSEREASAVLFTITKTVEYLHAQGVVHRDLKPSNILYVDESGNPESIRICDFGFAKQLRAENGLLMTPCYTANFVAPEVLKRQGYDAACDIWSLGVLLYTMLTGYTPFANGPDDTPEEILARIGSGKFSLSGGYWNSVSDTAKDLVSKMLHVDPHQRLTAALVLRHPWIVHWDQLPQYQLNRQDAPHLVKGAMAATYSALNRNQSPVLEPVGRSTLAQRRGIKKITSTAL
# Sequence of EPHA2 (P29317 whole entry): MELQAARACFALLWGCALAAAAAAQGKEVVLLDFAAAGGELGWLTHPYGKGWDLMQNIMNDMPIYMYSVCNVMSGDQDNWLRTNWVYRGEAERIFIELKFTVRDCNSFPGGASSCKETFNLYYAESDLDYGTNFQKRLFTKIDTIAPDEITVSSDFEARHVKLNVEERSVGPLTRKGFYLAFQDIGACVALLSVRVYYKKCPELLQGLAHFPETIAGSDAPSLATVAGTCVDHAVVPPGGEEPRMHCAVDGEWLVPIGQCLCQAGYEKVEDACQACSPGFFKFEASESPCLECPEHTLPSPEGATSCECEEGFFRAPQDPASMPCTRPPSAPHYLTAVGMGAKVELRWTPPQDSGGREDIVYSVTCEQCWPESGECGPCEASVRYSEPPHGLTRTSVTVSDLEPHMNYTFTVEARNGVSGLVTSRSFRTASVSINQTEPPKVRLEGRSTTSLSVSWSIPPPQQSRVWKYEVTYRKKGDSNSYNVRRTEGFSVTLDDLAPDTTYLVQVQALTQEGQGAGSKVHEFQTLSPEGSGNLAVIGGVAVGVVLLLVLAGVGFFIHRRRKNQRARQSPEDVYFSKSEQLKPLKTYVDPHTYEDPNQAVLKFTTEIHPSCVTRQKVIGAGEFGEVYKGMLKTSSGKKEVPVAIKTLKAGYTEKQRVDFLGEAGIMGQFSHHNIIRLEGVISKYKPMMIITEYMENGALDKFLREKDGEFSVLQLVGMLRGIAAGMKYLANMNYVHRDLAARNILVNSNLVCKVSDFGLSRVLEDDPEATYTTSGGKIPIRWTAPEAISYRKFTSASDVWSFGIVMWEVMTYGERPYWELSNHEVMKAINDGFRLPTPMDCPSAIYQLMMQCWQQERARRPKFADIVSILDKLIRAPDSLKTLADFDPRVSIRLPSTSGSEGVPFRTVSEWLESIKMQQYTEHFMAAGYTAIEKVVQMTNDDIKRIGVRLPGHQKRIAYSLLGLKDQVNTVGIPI
# Sequence of CIT (O14578 whole entry): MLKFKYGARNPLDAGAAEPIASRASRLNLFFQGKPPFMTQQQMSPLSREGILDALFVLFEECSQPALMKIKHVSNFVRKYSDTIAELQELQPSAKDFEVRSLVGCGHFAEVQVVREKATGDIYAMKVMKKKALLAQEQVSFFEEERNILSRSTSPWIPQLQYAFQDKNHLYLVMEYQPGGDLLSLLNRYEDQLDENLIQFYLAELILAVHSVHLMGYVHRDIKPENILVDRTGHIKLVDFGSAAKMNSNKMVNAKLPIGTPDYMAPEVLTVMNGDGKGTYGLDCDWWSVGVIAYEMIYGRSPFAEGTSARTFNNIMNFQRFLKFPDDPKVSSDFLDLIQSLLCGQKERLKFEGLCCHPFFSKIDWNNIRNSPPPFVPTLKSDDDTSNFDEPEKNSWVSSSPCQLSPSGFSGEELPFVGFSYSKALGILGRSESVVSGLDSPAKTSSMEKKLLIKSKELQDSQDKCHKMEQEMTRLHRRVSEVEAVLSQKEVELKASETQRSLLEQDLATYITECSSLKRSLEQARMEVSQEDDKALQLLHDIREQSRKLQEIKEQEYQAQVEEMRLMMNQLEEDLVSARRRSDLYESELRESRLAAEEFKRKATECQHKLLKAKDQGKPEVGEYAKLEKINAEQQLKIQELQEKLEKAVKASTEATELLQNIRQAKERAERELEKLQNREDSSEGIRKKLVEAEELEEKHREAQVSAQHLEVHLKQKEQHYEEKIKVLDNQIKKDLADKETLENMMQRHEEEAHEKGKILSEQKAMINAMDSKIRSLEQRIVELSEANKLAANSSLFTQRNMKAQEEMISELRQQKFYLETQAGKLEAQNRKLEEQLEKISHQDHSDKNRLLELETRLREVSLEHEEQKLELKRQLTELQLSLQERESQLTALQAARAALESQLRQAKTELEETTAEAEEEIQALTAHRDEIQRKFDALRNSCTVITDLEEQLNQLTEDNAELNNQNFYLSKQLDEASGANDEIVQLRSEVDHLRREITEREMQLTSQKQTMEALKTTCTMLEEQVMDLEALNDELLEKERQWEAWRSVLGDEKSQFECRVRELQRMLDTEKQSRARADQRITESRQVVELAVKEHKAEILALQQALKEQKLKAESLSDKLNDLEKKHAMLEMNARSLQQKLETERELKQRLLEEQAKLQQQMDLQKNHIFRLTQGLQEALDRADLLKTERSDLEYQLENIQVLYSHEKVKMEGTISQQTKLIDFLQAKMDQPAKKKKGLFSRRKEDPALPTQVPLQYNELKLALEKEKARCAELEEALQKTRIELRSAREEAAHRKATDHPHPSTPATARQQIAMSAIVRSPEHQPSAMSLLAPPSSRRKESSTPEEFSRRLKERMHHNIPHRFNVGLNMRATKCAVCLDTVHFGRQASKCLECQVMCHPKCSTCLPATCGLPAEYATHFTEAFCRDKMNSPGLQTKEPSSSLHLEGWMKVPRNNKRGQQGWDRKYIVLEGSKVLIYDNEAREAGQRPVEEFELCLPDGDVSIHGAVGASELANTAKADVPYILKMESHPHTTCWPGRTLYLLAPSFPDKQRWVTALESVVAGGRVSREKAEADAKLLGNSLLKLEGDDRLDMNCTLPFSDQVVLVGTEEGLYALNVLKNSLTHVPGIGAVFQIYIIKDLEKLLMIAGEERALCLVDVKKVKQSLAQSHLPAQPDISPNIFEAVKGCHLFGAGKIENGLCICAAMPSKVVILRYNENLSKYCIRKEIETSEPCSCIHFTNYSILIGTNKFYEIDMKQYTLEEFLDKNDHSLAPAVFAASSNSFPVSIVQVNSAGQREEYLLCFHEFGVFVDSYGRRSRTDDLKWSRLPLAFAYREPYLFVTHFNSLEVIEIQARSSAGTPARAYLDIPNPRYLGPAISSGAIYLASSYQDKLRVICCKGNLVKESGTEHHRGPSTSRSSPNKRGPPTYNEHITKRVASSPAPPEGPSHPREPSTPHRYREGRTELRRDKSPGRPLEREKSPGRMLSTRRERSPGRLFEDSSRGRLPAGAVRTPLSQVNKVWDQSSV
# Sequence of DYRK1B (Q9Y463 whole entry, looked up): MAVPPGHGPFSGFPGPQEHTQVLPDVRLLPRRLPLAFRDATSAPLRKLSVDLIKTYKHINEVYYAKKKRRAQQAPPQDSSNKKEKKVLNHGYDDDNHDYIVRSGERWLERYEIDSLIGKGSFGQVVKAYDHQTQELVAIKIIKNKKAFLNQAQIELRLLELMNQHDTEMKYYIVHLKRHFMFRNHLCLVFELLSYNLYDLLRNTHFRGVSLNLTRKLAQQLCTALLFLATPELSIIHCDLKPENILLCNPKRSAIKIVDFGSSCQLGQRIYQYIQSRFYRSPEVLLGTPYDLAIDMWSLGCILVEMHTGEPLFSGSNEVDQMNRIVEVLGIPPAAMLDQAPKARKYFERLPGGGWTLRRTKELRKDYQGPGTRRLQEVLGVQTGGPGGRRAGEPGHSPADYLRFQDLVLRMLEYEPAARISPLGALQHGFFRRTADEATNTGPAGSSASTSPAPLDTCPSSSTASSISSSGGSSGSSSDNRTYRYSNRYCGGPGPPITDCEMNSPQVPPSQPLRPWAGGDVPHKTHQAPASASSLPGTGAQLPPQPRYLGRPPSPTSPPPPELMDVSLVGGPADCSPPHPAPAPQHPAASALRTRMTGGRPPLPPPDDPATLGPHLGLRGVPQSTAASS
structure (smiles),measurement,setting,value
C#CCNC(=O)c1cc(Nc2cc(C3CC3)[nH]n2)nc(N2CCN(Cc3ccc(S(=O)(=O)F)cc3)CC2)n1,pIC50,PKMYT1; cell material: Jurkat cells,5.67
same,pIC50,PKMYT1; cell material: Jurkat lysate,< 4.52
same,pIC50,PKMYT1; cell material: Lysate mix,< 4.52
same,pIC50,PIM3; cell material: Jurkat lysate,< 4.52
same,pIC50,PIM3; cell material: Lysate mix,< 4.52
same,pIC50,UniProt Q9NYL2; cell material: Jurkat cells,5.56
same,pIC50,UniProt Q9NYL2; cell material: Jurkat lysate,< 4.52
same,pIC50,UniProt Q9NYL2; cell material: Lysate mix,< 4.52
same,pIC50,UniProt P36507; cell material: Jurkat cells,6.02
same,pIC50,UniProt P36507; cell material: Jurkat lysate,< 4.52
same,pIC50,UniProt P36507; cell material: Lysate mix,5.72
same,pIC50,DYRK1B; cell material: Jurkat cells,5.47
same,pIC50,DYRK1B; cell material: Jurkat lysate,< 4.52
same,pIC50,DYRK1B; cell material: Lysate mix,< 4.52
same,pIC50,UniProt P27361; cell material: Jurkat cells,5.73
same,pIC50,UniProt P27361; cell material: Jurkat lysate,< 4.52
same,pIC50,ACVR1; cell material: Jurkat cells,5.78
same,pIC50,ACVR1; cell material: Jurkat lysate,4.66
same,pIC50,ACVR1; cell material: Lysate mix,5.14
same,pIC50,EPHA2,< 4.52
same,pIC50,UniProt P21127; cell material: Jurkat cells,< 4.52
same,pIC50,UniProt P21127; cell material: Jurkat lysate,< 4.52
same,pIC50,UniProt P21127; cell material: Lysate mix,< 4.52
same,pIC50,UniProt P51812; cell material: Jurkat cells,5.96
same,pIC50,UniProt P51812; cell material: Jurkat lysate,< 4.52
same,pIC50,UniProt P51812; cell material: Lysate mix,5.44
same,pIC50,CIT; cell material: Jurkat lysate,< 4.52
same,pIC50,CIT; cell material: Lysate mix,< 4.52
same,pIC50,PRKAA2,7.31
same,pIC50,EGFR,5.4
same,pIC50,Hck,5.86
same,pIC50,CAMK2B,< 4.52
same,pIC50,TEC; cell material: Jurkat cells,5.88
same,pIC50,TEC; cell material: Jurkat lysate,< 4.52
same,pIC50,TEC; cell material: Lysate mix,< 4.52
same,pIC50,UniProt O96017; cell material: Jurkat cells,5.76
same,pIC50,UniProt O96017; cell material: Jurkat lysate,4.88
same,pIC50,UniProt O96017; cell material: Lysate mix,4.92
same,pIC50,BMPR1B,4.78
same,pIC50,TYK2; cell material: Jurkat cells,< 4.52
same,pIC50,TYK2; cell material: Jurkat lysate,< 4.52
same,pIC50,TYK2; cell material: Lysate mix,< 4.52
C#CCNC(=O)c1cc(Nc2cc(C)[nH]n2)nc(N2CCN(Cc3ccc(S(=O)(=O)F)cc3)CC2)n1,pIC50,PKMYT1; cell material: Lysate mix,< 4.52
same,pIC50,PIM3; cell material: Lysate mix,< 4.52
same,pIC50,UniProt Q9NYL2; cell material: Lysate mix,< 4.52
same,pIC50,UniProt P36507; cell material: Lysate mix,< 4.52
same,pIC50,DYRK1B; cell material: Lysate mix,< 4.52
same,pIC50,UniProt P27361; cell material: Lysate mix,< 4.52
same,pIC50,ACVR1; cell material: Lysate mix,< 4.52
same,pIC50,EPHA2,< 4.52
same,pIC50,UniProt P21127; cell material: Lysate mix,< 4.52
same,pIC50,UniProt P51812; cell material: Lysate mix,5.11
same,pIC50,CIT; cell material: Lysate mix,< 4.52
same,pIC50,PRKAA2,6.53
same,pIC50,EGFR,5.56
same,pIC50,Hck,5.4
same,pIC50,CAMK2B,< 4.52
same,pIC50,TEC; cell material: Lysate mix,< 4.52
same,pIC50,UniProt O96017; cell material: Lysate mix,4.98
same,pIC50,BMPR1B,< 4.52
same,pIC50,TYK2; cell material: Lysate mix,< 4.52
Cc1cc(Nc2cc(C(=O)NCCNC(=O)OC3CC/C=C/CCC3)nc(N3CCN(Cc4ccc(S(=O)(=O)F)cc4)CC3)n2)n[nH]1 (stereo not given),pIC50,PKMYT1; cell material: Lysate mix,< 4.52
same,pIC50,PIM3; cell material: Lysate mix,< 4.52
same,pIC50,UniProt Q9NYL2; cell material: Lysate mix,< 4.52
same,pIC50,UniProt P36507; cell material: Lysate mix,< 4.52
same,pIC50,DYRK1B; cell material: Lysate mix,< 4.52
same,pIC50,UniProt P27361; cell material: Lysate mix,< 4.52
same,pIC50,ACVR1; cell material: Lysate mix,< 4.52
same,pIC50,EPHA2,< 4.52
same,pIC50,UniProt P21127; cell material: Lysate mix,< 4.52
same,pIC50,UniProt P51812; cell material: Lysate mix,< 4.52
same,pIC50,CIT; cell material: Lysate mix,< 4.52
same,pIC50,PRKAA2,5.31
same,pIC50,EGFR,< 4.52
same,pIC50,Hck,< 4.52
same,pIC50,CAMK2B,< 4.52
same,pIC50,TEC; cell material: Lysate mix,< 4.52
same,pIC50,UniProt O96017; cell material: Lysate mix,5.23
same,pIC50,BMPR1B,< 4.52
same,pIC50,TYK2; cell material: Lysate mix,< 4.52
